The source of these data is ChEMBL document CHEMBL4184231, “Selective inhibition of monoamine oxidase A by hispidol” (Bioorg Med Chem Lett, 2018).

Data set [1] concerns the target T1, Amine oxidase [flavin-containing] A (Homo sapiens, UniProt P21397).
T1 sequence (P21397 whole entry): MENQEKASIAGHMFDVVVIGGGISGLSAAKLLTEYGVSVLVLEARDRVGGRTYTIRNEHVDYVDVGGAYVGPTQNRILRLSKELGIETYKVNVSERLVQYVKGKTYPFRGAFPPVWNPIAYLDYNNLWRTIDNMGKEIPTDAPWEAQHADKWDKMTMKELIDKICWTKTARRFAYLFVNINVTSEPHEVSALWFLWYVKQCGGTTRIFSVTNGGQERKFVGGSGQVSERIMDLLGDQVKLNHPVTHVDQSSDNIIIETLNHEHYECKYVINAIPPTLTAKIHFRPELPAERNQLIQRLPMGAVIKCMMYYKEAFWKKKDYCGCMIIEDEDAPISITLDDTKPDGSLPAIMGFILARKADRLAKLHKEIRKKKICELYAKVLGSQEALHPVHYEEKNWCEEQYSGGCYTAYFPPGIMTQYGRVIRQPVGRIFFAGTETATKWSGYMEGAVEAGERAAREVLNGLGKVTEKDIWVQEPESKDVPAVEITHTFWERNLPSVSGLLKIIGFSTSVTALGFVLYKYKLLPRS
The data set can be described thus: Competitive inhibition of human recombinant MAOA using 0.006 to […] kynuramine as substrate preincubated for 30 mins followed by substrate addition by Lineweaver-Burk plot.

Data set [2] has as its target T2, Amine oxidase [flavin-containing] B (Homo sapiens, UniProt P27338).
T2 sequence (P27338 whole entry): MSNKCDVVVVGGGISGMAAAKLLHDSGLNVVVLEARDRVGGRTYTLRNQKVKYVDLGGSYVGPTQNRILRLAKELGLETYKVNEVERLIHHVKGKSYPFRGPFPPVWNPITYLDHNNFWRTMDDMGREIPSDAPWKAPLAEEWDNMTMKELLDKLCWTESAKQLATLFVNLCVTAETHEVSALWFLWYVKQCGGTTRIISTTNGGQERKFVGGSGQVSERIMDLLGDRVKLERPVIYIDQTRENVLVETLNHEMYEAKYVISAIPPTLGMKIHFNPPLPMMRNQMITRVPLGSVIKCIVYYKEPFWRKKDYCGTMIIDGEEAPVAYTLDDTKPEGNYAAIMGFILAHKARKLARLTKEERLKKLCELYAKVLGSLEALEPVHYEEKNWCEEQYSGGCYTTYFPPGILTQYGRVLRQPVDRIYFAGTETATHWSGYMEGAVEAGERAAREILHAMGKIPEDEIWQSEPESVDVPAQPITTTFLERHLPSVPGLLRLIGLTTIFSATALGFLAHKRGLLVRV
The data set can be described thus: Reversible inhibition of human recombinant MAOB assessed as residual enzyme activity at 5 uM pre-incubated with enzyme for 30 mins followed by dialysis with pH 7.2 sodium phosphate buffer for 6 hrs followed by 0.06 mM benzylamine substrate addition. Conditions: pH 7.2, 6 h; call rule not given here.

For data set [3], the target named is T1, Amine oxidase [flavin-containing] A. The data set can be described thus: Inhibition of human recombinant MAOA using kynuramine as substrate preincubated for 30 mins followed by substrate addition.
For data set [4], the target named is T2, Amine oxidase [flavin-containing] B. The data set can be described thus: Inhibition of human recombinant MAOB assessed as residual enzyme activity at 5 uM pre-incubated for 30 mins followed by 0.06 mM benzylamine substrate addition.
Data set [5] has as its target T1, Amine oxidase [flavin-containing] A. Nature of the data set: Inhibition of human recombinant MAOA assessed as residual enzyme activity at 0.5 uM pre-incubated for 30 mins followed by 0.06 mM kynuramine substrate addition. Conditions: read-out: INH.
Data set [6] has the same target. Nature of the data set: Reversible inhibition of human recombinant MAOA assessed as residual enzyme activity at 0.5 uM pre-incubated with enzyme for 30 mins followed by dialysis with pH 7.2 sodium phosphate buffer for 6 hrs followed by 0.06 mM kynuramine substrate addition. Conditions: read-out: INH.
For data set [7] the target is unchanged. The data set can be described thus: Time dependent inhibition of human recombinant MAOA using kynuramine as substrate preincubated for up to 30 mins followed by substrate addition.
Data set [8] shares this target. Nature of the data set: Irreversible inhibition of human recombinant MAOA assessed as residual enzyme activity at 0.01 uM pre-incubated with enzyme for 30 mins followed by dialysis with pH 7.2 sodium phosphate buffer for 6 hrs followed by 0.06 mM kynuramine substrate addition. As to conditions: read-out: Activity.
Data set [9] has the same target. Nature of the data set: Inhibition of human recombinant MAOA assessed as residual enzyme activity at 0.01 uM pre-incubated for 30 mins followed by 0.06 mM kynuramine substrate addition. Conditions: read-out: Activity.
Data set [10] addresses T2, Amine oxidase [flavin-containing] B. Nature of the data set: Inhibition of human recombinant MAOB assessed as residual enzyme activity at 2 time IC50 pre-incubated for 30 mins followed by 0.06 mM benzylamine substrate addition.
Data set [11] has the same target. The data set can be described thus: Reversible inhibition of human recombinant MAOB assessed as residual enzyme activity at 2 times IC50 pre-incubated with enzyme for 30 mins followed by dialysis with pH 7.2 sodium phosphate buffer for 6 hrs followed by 0.06 mM benzylamine substrate addition. Conditions: pH 7.2, 6 h.
Data set [12] shares this target. Nature of the data set: Inhibition of human recombinant MAOB at 80 uM using benzylamine as substrate preincubated for 30 mins followed by substrate addition.
The species entered for data set [13] is Homo sapiens. The data set can be described thus: Selectivity index, ratio of IC50 for human recombinant MAOB to IC50 for human recombinant MAOA.
Data set [14] deals with T2, Amine oxidase [flavin-containing] B. The data set can be described thus: Inhibition of human recombinant MAOB using benzylamine as substrate preincubated for 30 mins followed by substrate addition.
Data set [15] addresses T1, Amine oxidase [flavin-containing] A. The data set can be described thus: Inhibition of human recombinant MAOA assessed as residual enzyme activity at 2 uM pre-incubated for 30 mins followed by 0.06 mM kynuramine substrate addition. As to conditions: read-out: Activity.
For data set [16] the target is unchanged. Nature of the data set: Reversible inhibition of human recombinant MAOA assessed as residual enzyme activity at 2 uM pre-incubated with enzyme for 30 mins followed by dialysis with pH 7.2 sodium phosphate buffer for 6 hrs followed by 0.06 mM kynuramine substrate addition. As to conditions: read-out: Activity.

One may read the Ki as a dissociation constant, usually derived from enzyme kinetics or from competition with a known ligand. What is called IC50 is the midpoint of a concentration-inhibition curve. As a reminder, the inhibition is the relative decrease from the control value, in per cent.

Turning to `O=C1/C(=C/c2ccc(O)cc2)Oc2cc(O)ccc21`, in data set [1], the inhibition constant (Ki) turned out to be 100 nM. For the same compound, the Activity in [2] worked out at 28%; in data set [4] it was 87.5%. For the same compound, the IC50 in [3] was found to be 260 nM. Moreover, the results for the activity at 0.5 µM in data set [5] and in data set [6] were 29.8% and 83.7%, respectively. Also, the TDI result in data set [7] was “Not Active”.

Turning to `COc1cc(O)c2c(=O)oc3cc(O)cc(C)c3c2c1`, the half-inhibitory concentration (IC50) in data set [3] was 1710 nM.

Turning to `COc1ccc(-c2cc(=O)c3c(O)cc(O)cc3o2)cc1` [ACACETIN], in data set [3], the IC50 was 190 nM.

As for `O=c1cc(-c2ccc(O)cc2)oc2cc(O)cc(O)c12` [APIGENIN], the 50% inhibitory concentration (IC50) in data set [3] came out at 1550 nM.

`C#CCN(C)CCCOc1ccc(Cl)cc1Cl` [CLORGILINE]: the activity at 0.01 µM in data set [8] amounted to 17.3%; in data set [9], 18.3%.

As for `CC(C)=CC(=O)O[C@H]1Cc2cc3ccc(=O)oc3cc2OC1(C)C` [DECURSIN], the IC50 in data set [3] was 1760 nM.

For the compound `NCCNC(=O)c1ccc(Cl)cn1` [LAZABEMIDE], the figures for the Activity in data set [10] and in data set [11] were 72.9% and 35%, respectively.

On to `O=C1/C(=C/c2ccc(O)c(O)c2)Oc2cc(O)ccc21` [SULFURETIN], for which the inhibition at 80 µM in data set [12] was 20.8%. Besides, in data set [13], the Ratio IC50 was > 19.2. The half-maximal inhibitory concentration (IC50) in [3] is 4160 nM; in data set [14] it was > 80000 nM. The TDI entry in [7] was “Not Active”.

In the case of `Cc1cccc(N2CC(CO)OC2=O)c1` (configuration not stated) [TOLOXATONE], the activity at 2 µM in data set [15] stood at 75.4%; in data set [16], 30.7%.
